The results in this text go back to patent US20180057530A1, “CYCLIC PEPTIDE COMPOUND, AND PREPARATION AND USE THEREOF” (Zhejiang Hisun Pharmaceutical Co., Ltd., priority 2015, published 2018).

The test system of data set [1] is Human breast cancer cells (MDA-MB-231). Put plainly: MTT tumor cell growth inhibition, MDA-MB-231. It counts as cell-based. The conditions noted are these: MDA-MB-231, MTT, 72 hours, relative IC50. The text has this: (§1) The tetrazolium salt (MTT) reduction method was used to test the activity of the compounds of the present invention. Human breast cancer cells (MDA-MB-231) (CAS cell library; catalog number: TCHu227), human lung cancer cells (A549) (ATCC® Number: CRM-CCL-185™), human colon cancer cells (HCT-116) (CAS cell library; catalog number: TCHu99), acute monocytic leukemia cells (MV4-11) (ATCC® Number: CRL-9591™), tissue cell lymphoma cells (U-937) (CAS cell library; catalog number: TCHu159), human acute promyelocytic leukemia cells (HL-60) (ATCC® Number: CCL-240™), chronic myelogenous leukemia cells (of K562) (CAS cell library; catalog number: TCHu191), human hepatocellular carcinoma cells (BEL-7404) (CAS cell library; catalog number: TCHu64), human pancreatic cancer cells (BxPC3) (ATCC® Number: […])) and human prostate cancer cells (PC-3) (ATCC®Number: […]) were inoculated in 96-well plates, 90 μL/well, with 3000 to 8000 cells in respective well; in the first row of plate, 100 μL/well culture medium was added; the 96-well plate was pre-incubated in an incubator at 37° C., 5% CO2, and 100% relative humidity for 24 hours.
(§2) A compound was weighed and configured to a 10 mM/L stock solution, and the compound was diluted three-fold sequentially from the highest concentration of 2 millimoles (mM); 95 μl the corresponding cell medium was added to each well of a V-bottom dispensing plate; 5 μl of the compound on a 200× plate was transferred to a 10× dispensing plate according to the concentration; 5 μl of dimethylsulfoxide (DMSO) was evenly mixed in the corresponding 95 μl cell culture medium as a vehicle control. 10 μl of the compound-medium in each well of the 10× dispensing plate was added to a 96-well plate already plated with cells. […]
(§3) After the compound for cells was treated for 72 hours, 20 microliters of 5 mg/ml MTT was added to each well; all the steps need to be aseptic. […] The absorbance at 490 nm was read on a SpectraMax M2e instrument. The compound activity (relative IC50) was calculated using GraphPad Prism software.

For data set [2], the system named is human lung cancer cells (A549). Put plainly: MTT tumor cell growth inhibition, A549. Conditions: 72 hours, relative IC50. It counts as cell-based.
Description: as §1, §2, §3

Data set [3] has as its system human colon cancer cells (HCT-116). The data set is described as follows: MTT tumor cell growth inhibition, HCT-116. It counts as cell-based. Conditions: HCT-116, MTT, 72 hours, relative IC50.
Description: as §1, §2, §3

Data set [4] deals with acute monocytic leukemia cells (MV4-11). The data set is described as follows: MTT tumor cell growth inhibition, MV4-11. It counts as cell-based. The conditions noted are these: Homo sapiens; MV4-11, MTT, 72 hours, relative IC50.
Description: as §1, §2, §3

The subject of data set [5] is tissue cell lymphoma cells (U-937). The data set is described as follows: MTT tumor cell growth inhibition, U-937. It counts as cell-based. Conditions: Homo sapiens; U-937, MTT, 72 hours, relative IC50.
Description: as §1, §2, §3

Data set [6] deals with human acute promyelocytic leukemia cells (HL-60). The data set is described as follows: MTT tumor cell growth inhibition, HL-60. It counts as cell-based. The conditions noted are these: HL-60, MTT, 72 hours, relative IC50.
Description: as §1, §2, §3

Data set [7] concerns chronic myelogenous leukemia cells (K562). The data set is described as follows: MTT tumor cell growth inhibition, K562. It counts as cell-based. The conditions noted are these: Homo sapiens, 72 hours, relative IC50.
Description: as §1, §2, §3

Data set [8] has as its system human hepatocellular carcinoma cells (BEL-7404). The data set is described as follows: MTT tumor cell growth inhibition, BEL-7404. It counts as cell-based. The conditions noted are these: BEL-7404, MTT, 72 hours, relative IC50.
Description: as §1, §2, §3

The test system of data set [9] is human pancreatic cancer cells (BxPC3). Put plainly: MTT tumor cell growth inhibition, BxPC3. It counts as cell-based. The conditions noted are these: BXPC-3, 72 hours, relative IC50.
Description: as §1, §2, §3

The test system of data set [10] is human prostate cancer cells (PC-3). The data set is described as follows: MTT tumor cell growth inhibition, PC-3. It counts as cell-based. The conditions noted are these: PC-3, MTT, 72 hours, relative IC50.
Description: as §1, §2, §3

In a further data set the test system is tumor cells. The data set is described as follows: MTT tumor cell growth inhibition, summary over the cell line panel. It counts as cell-based. The conditions noted are these: ten tumor cell lines of Table 2, MTT, 72 hours; read-out: IC50 of tumor cell proliferation inhibition, span over the tested cell lines.
Description: as §1, §2, §3

In data set [11] the test system is Human breast cancer cell line MDA-MB-231. Put plainly: In vivo pharmacodynamic study of compound A, MDA-MB-231 nude mice transplanted tumor model. More on the design: species or system BALB/C nude mice. Conditions: MDA-MB-231 model, q4d, 4x. Here is the method:
(§4) Female BALB/C nude mice 6 weeks to 8 weeks old and weighing about 19 g to 29 g were taken (Supplier: Beijing Vital River Laboratory Animal Technology Co., Ltd.) and raised for a week. A human cancer nude mice […] transplanted tumor model was established: Human breast cancer cell line MDA-MB-231 (ATCC® Number: HTB-26™) and human lung cancer cell line NCI-H460 (ATCC® Number: HTB-177™) were incubated. The monolayer tumor cells were digested and detached; then, they were collected and resuspended in a serum-free culture medium, and then were adjusted to a concentration of 2×10^6/0.2 mL. They were put into an iced box and brought to an animal house. A syringe with a No. 6 needle was used to directly take a 0.2 mL cell suspension and transplanted it into the rear subcutaneous scapular regions of the left axillaries of the nude mice at 2×10^6/0.2 mL per mouse. Tumor volumes were measured once every 2 days to 3 days. After two weeks, tumor-bearing nude mice with vigorous tumor growth and no ulceration were selected, the tumors were removed from them under sterile conditions. The tumor tissues were cut to about 2 mm to 3 mm in diameter and inoculated in the rear subcutaneous scapular regions of the left axillaries of the nude mice. After passage for three generations, when the tumor volume grew to 100 mm^3, nude mice with tumor masses that were too large or too small were removed and randomly grouped for administration.
(§5) The mice were randomly divided into five groups, including the negative control group (vehicle), positive control group (Romidepsin, 2.4 mg/kg), treatment group with the high, medium, and low doses of compound A (respectively 7.2 mg/kg, 4.8 mg/kg, 2.4 mg/kg, wherein the high dose was lower than the maximum tolerated dose, MTD); there were six nude mice in each group; intravenous administration was given every 4 days; 4 doses were given. During the period, the weights and tumor volumes of the animals were measured every 2 days, and the number of animal deaths was recorded. 24 hours after the last administration, the animals were sacrificed. The tumor volumes, tumor weights, and body weights of nude mice were measured; tumor volume growth curves, nude mice weight growth curves and tumor inhibition rates, mortality of the animals were plotted; the relative tumor proliferation rate T/C (%) was calculated; according to the formula T/C (%)=TRTV/CRTV*100%. (TRTV: treatment group RTV; CRTV: negative control group RTV, relative tumor volume RTV=Vt/V0, wherein V0 is the tumor volume at the time of administration by group; Vt is the post-administration tumor volume).

Data set [12] concerns human lung cancer cell line NCI-H460. The data set is described as follows: In vivo pharmacodynamic study of compound A, NCI-H460 nude mice transplanted tumor model. On the set-up: species or system BALB/C nude mice. The conditions noted are these: q4d, 4x. Here is the method: as §4, §5
Another data set deals with blood cells. Put plainly: Effect on blood phase, complete blood count (CBC) analysis. It counts as in vivo, BAB-C mice. Conditions: mouse, in vivo, 0.5 mg/kg. On the procedure:
BAB-C mice (6 to 8 weeks old, a half being males and the other half females, weighing about 18 g-25 g, supplier: Beijing Vital River Laboratory Animal Technology Co., Ltd.) were raised for one week and then divided into three groups: normal control group, Romidepsin group, and compound A group. The normal group was injected with the vehicle; the drug group was injected with 0.5 mg/kg of the drug; 24 hours and 48 hours respectively after administration, a complete blood count (CBC) analysis was performed; for all the data, mean±standard deviation (mean±SD) was adopted; T tests were performed between inter-group data.

In another data set the test system is MDA-MB-231 breast cancer. The data set is described as follows: In vivo efficacy study of compound B, xenografted MDA-MB-231 breast cancer. More on the design: species or system BALB/c nude mice. The conditions noted are these: once a week for four weeks; for Day 28 tumor volume: mean ± standard error. Here is the method: Female BALB/C nude mice 6 weeks to 8 weeks old and weighing about 19 g to 29 g were taken and raised for one week (supplier: Beijing Vital River Laboratory Animal Technology Co., Ltd.) MDA-MB-231 (ATCC® Number: HTB-26™) breast cancer cells were cultured in vitro; the culture conditions were: 10% fetal bovine serum was added to an L-15 medium, 37° C., and 0% CO2. Passage was performed twice a week. When the cells were in the exponential growth phase, the cells were collected, counted, and inoculated. […] The cells were suspended in phosphate buffered saline (PBS) and Matrigel (1:1) was added. A total of 50 mice were inoculated. […] The experimental indicator was to examine whether the tumor growth was inhibited, delayed, or subsided. Tumor diameter was measured three times a week with a vernier caliper. The formula for calculating tumor volume is as follows: […] The antitumor efficacy of the compound was evaluated with T/C (%) and of TGI. […] T0 indicates the mean tumor volume of the treatment group at the time of administration by cage; Vi indicates the mean tumor volume of the vehicle group on the same day; V0 indicates the mean tumor volume of the vehicle group at the time of administration by cage. At the end of the experiment, the tumors were stripped, weighed, and photographed.

Take `C/C=C1\NC(=O)[C@H]2C[S+]([O-])SCC/C=C/[C@H](CC(=O)N[C@H](C(C)C)C(=O)N2)OC(=O)[C@H](C(C)C)NC1=O` (stereo partly drawn) [Compound A]: the IC50 in data set [1] is 9.7 nM; in data set [2], 10.7 nM; in data set [3] it was 29.3 nM; in data set [4], 33 nM; in data set [5], 22.8 nM; in [6], 35.9 nM. Further, the IC50 in data set [7] is 23.2 nM; in data set [8], 10 nM; in data set [9], 13.9 nM; in data set [10] it was 11.9 nM; in the data set on tumor cells, 9.7 to 35.9 nM. In addition, the “Relative tumor proliferation rates T/C (%)” value in data set [11] (2.4 mg/kg) is reported as 45.5%(2.4 mg/kg, q4d, 4x); in [11] (4.8 mg/kg), 35.4%(4.8 mg/kg, q4d, 4x); in data set [11] (7.2 mg/kg), 29.8%(7.2 mg/kg, q4d, 4x); in data set [12] (2.4 mg/kg) it was 44%(2.4 mg/kg, q4d, 4x); in data set [12] (4.8 mg/kg) it was 38.6%(4.8 mg/kg, q4d, 4x); in data set [12] (7.2 mg/kg), 25.2%(7.2 mg/kg, q4d, 4x). Moreover, the “PLT compared with the normal group” value with blood cells is recorded as “significantly decreased”. For the same compound, the “WBCs compared with the normal group” value in the data set on blood cells is “no significant difference compared with the normal group”.

For `C/C=C1\NC(=O)[C@H]2CS[S+]([O-])CC/C=C/[C@H](CC(=O)N[C@H](C(C)C)C(=O)N2)OC(=O)[C@H](C(C)C)NC1=O` (stereo partly drawn) [Compound B], the IC50 came to 2 nM in data set [1]; 3.6 nM in data set [2]; 6.1 nM in data set [3]; 4.8 nM in [4]; 5.4 nM in data set [5]; 3.4 nM in [6]. Moreover, the IC50 in [7] is 2.6 nM; in [8], 4.9 nM; in data set [9], 6.5 nM; in data set [10], 6.1 nM; in the data set on tumor cells, 2 to 6.5 nM. Further, the “Day 28 tumor volume” value in the data set with MDA-MB-231 breast cancer (2.2 mg/kg intravenous) worked out at 259 ± 47 mm^3; in the data set on MDA-MB-231 breast cancer (2.2 mg/kg intravenous, listed as compound B), 259 mm^3; with MDA-MB-231 breast cancer (4.4 mg/kg intravenous), 202 ± 38 mm^3; with MDA-MB-231 breast cancer (4.4 mg/kg intravenous, listed as compound B), 202 mm^3; in the data set on MDA-MB-231 breast cancer (6.6 mg/kg intravenous) it was 187 ± 29 mm^3; in the data set with MDA-MB-231 breast cancer (6.6 mg/kg intravenous, listed as compound B) it was 187 mm^3. For the same compound, the “T/C (%)” value is recorded as 11.3% with MDA-MB-231 breast cancer (day 28, 2.2 mg/kg intravenous); 5.9% in the data set on MDA-MB-231 breast cancer (day 28, 4.4 mg/kg intravenous); 4.5% in the data set on MDA-MB-231 breast cancer (day 28, 6.6 mg/kg intravenous). Moreover, the “TGI (%)” value in the data set on MDA-MB-231 breast cancer (day 28, 2.2 mg/kg intravenous) is recorded as 88.7%; with MDA-MB-231 breast cancer (day 28, 4.4 mg/kg intravenous), 94.1%; in the data set on MDA-MB-231 breast cancer (day 28, 6.6 mg/kg intravenous) it was 95.5%.
